Assay results taken from patent US20050153976A1, “Pharmaceutical compositions” (SCHERING CORPORATION, priority 2003, published 2005).
Values joined by “and” are separate entries in the source; they are usually repeats but may differ in a detail not shown here. Equal values may be shown once.

What was measured:
[1] = In-vivo pharmacokinetic (PK) studies; design: species or system rats and dogs; conditions: Dose 10 mg/kg
Text: In-vivo pharmacokinetic (PK) studies in rats and dogs with these compositions show better PK results in terms of AUC, Cmax, and dose proportionality than that of compound only.

[2] = Solubility of the compound in aqueous media and in organic solvents; format: physicochemical
Text: (§1) A particularly useful compound for use in the present invention is the compound represented by the chemical structural formula I comprising: [drawing 5] This compound is chemically known as 1-[(1-acetyl-4-piperidinyl)acetyl]-2(S)-(1,1-dimethylethyl)-4(S)*4-[phenyl [4(trifluoromethoxy)phenyl]methyl]piperazine and has a molecular weight of 559.3 g/mole. It is a weak base with a pKa of 4.0 corresponding to the ionization of the piperazine ring. The value of log P is 3.0 and the log D at pH 7.4 is calculated to be 2.9. […] The compound is very soluble in both ethanol and methanol (>150 mg/mL). The solubility in most common organic solvents, such as acetonitrile, dimethyl sulfoxide (DMSO), methylene chloride, ethyl acetate, isopropyl alcohol, hexane, and acetone, generally exceeds 50 mg/mL. The free form of the compound is amorphous, but a crystalline hydrogen sulfate salt of this compound can be made. The X-ray powder diffraction (XRPD) patterns of the amorphous free base and the crystalline hydrogen sulfate salt are shown in FIG. 1.

[3] = Evaluation of suspension in 0.4% HPMC solution or water (pH, chemical and physical stability, re-suspensibility); format: physicochemical
Text: With proper ratios of carrier to compound, free flowing and uniform powders or solids can be produced. These powders or solids should have the original molecular characteristics of the adsorbed chemicals. The residual solvent (EtOH) used in this process can be reduced to 20 ppm level. These flowable powders or solids are suspended in an aqueous solution, such as 0.4% HPMC solution or water.
The flowable powders or solids have been tested to be very stable for at least two weeks chemically and physically at room temperature (RT) and ICH RH4 conditions (40° C. and 75% relative humility). The suspension solutions (SiO2-Compound or MCC-Compound in 0.4% HPMC solution or water) are also very stable both chemically and physically for at least two weeks at room temperature. The evaluation of SiO2-Compound and MCC-Compound are shown in Example 1.
Preparation of SiO2-Compound of Formula I samples may be carried out by the following representative steps. Uniformly mix 0.5 grams of API free form (amorphous) with 1.0 grams of SiO2 (Syliod®) 244 FP) in a container using a magnetic stirrer. Then add 5.0 mL of ethanol to the container to dissolve the compound completely. Stir at room temperature and dry the solution under N2 gas until a slurry is formed. Dry the slurry at increasing temperature beginning at 25° C. ending at 50° C. over a duration of 1 hour and at 50° C. for overnight under house vacuum. […]

[4] = pKa and log P of the compound of formula I; format: physicochemical
Text: as §1

% AUC (infinity) [1]: 1.2% | AUC(0-t) ([1]; in vivo): 2520 ng·h/mL and 4.5 µM·h | Cmax ([1]; in vivo): 260 ng/mL and 500 nM | Tmax ([1]; in vivo): 3.3 h | AUC(0-inf) ([1]; in vivo, read-out: AUC (infinity)): 4.6 µM·h and 2550 ng·h/mL | solubility ([2]; aqueous media, aqueous buffer, pH 4.0): 1.9 µg/mL and 3.4 µM | solubility ([2]; aqueous media, pH 2.3, aqueous buffer): 74.6 µg/mL and 133 µM | solubility ([2]; aqueous media, pH 7.4, aqueous buffer, pH greater than 7.4): < 1 µg/mL and < 2 µM | solubility ([2]; organic solvent or mixture, in both ethanol and methanol): > 150 mg/mL | solubility ([2]; organic solvent or mixture, most common organic solvents (acetonitrile, DMSO, methylene chloride, ethyl acetate, isopropyl alcohol, hexane, acetone)): > 50 mg/mL | behaviour when suspended in 0.4% HPMC solution ([3]; SiO2 sample at 100 mg/mL, MCC sample at 102 mg/mL, free form as reference): forms a gum | behaviour when suspended in aqueous media ([3]; aqueous media): forms a gum | logP [4]: 3 | pKa ([4]; weak base, ionization of the piperazine ring): 4
SMILES: CC(=O)N1CCC(CC(=O)N2CCN(C(c3ccccc3)c3ccc(OC(F)(F)F)cc3)C[C@@H]2C(C)(C)C)CC1 (stereo partly drawn) [Compound of Formula I, 1-[(1-acetyl-4-piperidinyl)acetyl]-2(S)-(1,1-dimethylethyl)-4(S)*4-[phenyl [4(trifluoromethoxy)phenyl]methyl]piperazine]
